In ChEMBL document CHEMBL1649585, “Role of the Mycobacterium tuberculosis P55 efflux pump in intrinsic drug resistance, oxidative stress responses, and growth” (2009):

Columns and labels:
Type in all cases: functional
[1] = test system: Mycobacterium tuberculosis; test: Downregulation of p27 gene expression Mycobacterium tuberculosis by microarray
[2] = test system: Mycobacterium tuberculosis; test: Upregulation of p27 gene expression in Mycobacterium tuberculosis by microarray
[3] = test system: Mycobacterium tuberculosis; test: Downregulation of p55 gene expression Mycobacterium tuberculosis by microarray
[4] = test system: Mycobacterium tuberculosis; test: Upregulation of p55 gene expression Mycobacterium tuberculosis by microarray

Measured: fold change (FC)

CC(C)/N=c1\cc2n(-c3ccc(Cl)cc3)c3ccccc3nc-2cc1Nc1ccc(Cl)cc1 [CLOFAZIMINE]
>=2: all assays above

CN(C)CCCN1c2ccccc2Sc2ccc(Cl)cc21 [CHLORPROMAZINE]
>=2: all assays above

CSc1ccc2c(c1)N(CCC1CCCCN1C)c1ccccc1S2 (configuration not stated) [THIORIDAZINE]
>=2: all assays above

CO[C@@H]1[C@@H](OC(N)=O)[C@@H](O)[C@H](Oc2ccc3c(O)c(NC(=O)c4ccc(O)c(CC=C(C)C)c4)c(=O)oc3c2C)OC1(C)C [NOVOBIOCIN]
>=2: all assays above

CC1=CC(=O)c2ccccc2C1=O [MENADIONE]
>=2: all assays above

CC(C)[C@@H]1NC(=O)[C@H](C)OC(=O)[C@@H](C(C)C)NC(=O)[C@@H](C(C)C)OC(=O)[C@H](C(C)C)NC(=O)[C@H](C)OC(=O)[C@@H](C(C)C)NC(=O)[C@@H](C(C)C)OC(=O)[C@H](C(C)C)NC(=O)[C@H](C)OC(=O)[C@@H](C(C)C)NC(=O)[C@@H](C(C)C)OC1=O [VALINOMYCIN]
>=2: all assays above

Oc1cc(Cl)ccc1Oc1ccc(Cl)cc1Cl [TRICLOSAN]
>=2: all assays above

O=[N+]([O-])c1cn2c(n1)OC[C@@H](OCc1ccc(OC(F)(F)F)cc1)C2 [PRETOMANID]
>=2: all assays above
